Results taken from BindingDB's records for doi:10.1021/acsmedchemlett.1c00437 (University of Pennsylvania, 2021).

Experiments:
[1] = Inhibition of gp120 in HIV-1 pseudotyped with A-MLV envelop glycoprotein infected in dog Cf2Th-CD4/CCR5 cells assessed as inhibition of viral entry incubated for 30 mins prior to infection and further incubated for 48 to 72 hrs in presence of firefly D-luciferin free acid and ATP by single-round infection luciferase assay
[2] = Inhibition of gp120 in HIV-1 AD8 infected in dog Cf2Th-CD4/CCR5 cells assessed as inhibition of viral entry incubated for 30 mins prior to infection and further incubated for 48 to 72 hrs in presence of firefly D-luciferin free acid and ATP by single-round infection luciferase assay
[3] = Inhibition of gp120 in HIV-1 A4 infected in dog Cf2Th-CD4/CCR5 cells assessed as inhibition of viral entry incubated for 30 mins prior to infection and further incubated for 48 to 72 hrs in presence of firefly D-luciferin free acid and ATP by single-round infection luciferase assay
[4] = Inhibition of gp120 in HIV-1 191084 infected in dog Cf2Th-CD4/CCR5 cells assessed as inhibition of viral entry incubated for 30 mins prior to infection and further incubated for 48 to 72 hrs in presence of firefly D-luciferin free acid and ATP by single-round infection luciferase assay

Structure (SMILES) | IC50 [1] [µM] | IC50 [2] [µM] | IC50 [3] [µM] | IC50 [4] [µM]
CNCc1ccc2c(c1)[C@H](NC(=O)C(=O)Nc1ccc(Cl)c(F)c1)[C@@H](CNC(=N)N)[C@@H]2CCC(O)CO (some centres undefined) | > 300 | 0.96 |  | 
[H]/N=C(/N)NC[C@H]1[C@H](CC[C@H](O)CO)c2cc(CNC)ccc2[C@@H]1NC(=O)C(=O)Nc1ccc(Cl)c(F)c1 | > 300 | 0.91 |  | 
[H]/N=C(/N)NC[C@H]1[C@H](CC[C@@H](O)CO)c2cc(CNC)ccc2[C@@H]1NC(=O)C(=O)Nc1ccc(Cl)c(F)c1 | > 300 | 1.6 |  | 
CNCc1ccc2c(c1)[C@@H](CCCO)[C@H](CNC(=N)N)[C@H]2NC(=O)C(=O)Nc1ccc(Cl)c(F)c1 | > 300 | 7.7 |  | 
CNCc1ccc2c(c1)[C@@H](CCC(O)CO)[C@H](CNC(=N)N)[C@H]2NC(=O)C(=O)Nc1ccc(Cl)c(F)c1 (some centres undefined) | > 300 | 3.32 | 98.9 | 20.6
CNCc1ccc2c(c1)[C@H](NC(=O)C(=O)Nc1ccc(Cl)c(F)c1)[C@@H](CNC(=N)N)[C@@H]2CC[C@H](O)CO | > 300 | 2.22 |  | 
C=CCC[C@@H]1c2cc(CNC)ccc2[C@H](NC(=O)C(=O)Nc2ccc(Cl)c(F)c2)[C@H]1CNC(=N)N | > 300 | 7.4 |  | 
[H]/N=C(/N)NC[C@H]1Cc2cc(CNC)ccc2[C@@H]1NC(=O)C(=O)Nc1ccc(Cl)c(F)c1 |  |  | 200 | 95.9

Other lines, results leading:

IC50 [1] [µM] | IC50 [2] [µM] | IC50 [3] [µM] | IC50 [4] [µM] | Structure (SMILES)
> 300 |  |  |  | C=CCC[C@@H]1c2ccc(CNC)cc2[C@H](NC(=O)C(=O)Nc2ccc(Cl)c(F)c2)[C@H]1CNC(=N)N
> 300 | 2.05 |  |  | CNCc1ccc2c(c1)[C@H](NC(=O)C(=O)Nc1ccc(Cl)c(F)c1)[C@@H](CNC(=N)N)[C@@H]2CCCO
> 100 |  |  |  | CCCC[C@@H]1c2cc(CNC)ccc2[C@H](NC(=O)C(=O)Nc2ccc(Cl)c(F)c2)[C@H]1CNC(=N)N
> 100 | 3.35 |  |  | CNCc1ccc2c(c1)[C@@H](CCC(=O)CO)[C@H](CNC(=N)N)[C@H]2NC(=O)C(=O)Nc1ccc(Cl)c(F)c1
